Several values for one entry are separate records, joined by “and”; a condition that tells them apart may be missing. Equal entries are not always repeated.

Experimental findings from ChEMBL document CHEMBL5604063, “ASAP - DENV-2 NS2B-NS3 protease fluorescence dose response” (2024) are described below.

The target of this experiment is Genome polyprotein (dengue virus type 2, UniProt P29990). The experiment is classed as functional, Thailand/16681/1984.
Chain of Genome polyprotein (P29990 1346-1475 limits assumed): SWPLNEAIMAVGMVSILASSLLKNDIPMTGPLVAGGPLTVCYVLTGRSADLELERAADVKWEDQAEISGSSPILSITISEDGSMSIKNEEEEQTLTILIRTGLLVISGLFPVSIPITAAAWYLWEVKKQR
Chain of Genome polyprotein (P29990 1476-2093 limits assumed): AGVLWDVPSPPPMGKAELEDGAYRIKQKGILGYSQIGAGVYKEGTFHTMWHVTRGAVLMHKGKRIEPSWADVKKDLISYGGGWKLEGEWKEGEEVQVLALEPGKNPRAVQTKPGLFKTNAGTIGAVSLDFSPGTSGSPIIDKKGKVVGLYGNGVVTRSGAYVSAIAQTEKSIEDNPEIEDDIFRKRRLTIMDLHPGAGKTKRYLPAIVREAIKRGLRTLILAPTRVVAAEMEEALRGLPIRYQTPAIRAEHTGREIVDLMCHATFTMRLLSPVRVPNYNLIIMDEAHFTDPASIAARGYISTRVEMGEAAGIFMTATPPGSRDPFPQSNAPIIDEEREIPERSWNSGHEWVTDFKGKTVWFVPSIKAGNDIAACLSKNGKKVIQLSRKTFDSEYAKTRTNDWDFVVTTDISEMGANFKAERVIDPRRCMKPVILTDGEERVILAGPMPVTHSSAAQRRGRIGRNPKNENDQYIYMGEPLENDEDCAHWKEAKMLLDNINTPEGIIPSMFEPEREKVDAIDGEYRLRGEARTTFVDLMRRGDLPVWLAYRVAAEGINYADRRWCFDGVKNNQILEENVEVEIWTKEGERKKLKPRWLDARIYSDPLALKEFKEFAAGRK
For the compound `Cc1cc(C(=O)Nc2ccc3c(c2)CNC3)c2cn[nH]c2c1`, the IC50 (usually the concentration that inhibits the measured activity by half) is over 99.5 µM.

With `Cc1ccc(S(=O)(=O)CNC(=O)[C@H](Nc2ccc3c(c2)CNC3)c2cc(Cl)cc3[nH]ncc23)cc1`, the IC50 was over 99.5 µM.

For `CC(C)(C)c1ccc(Cl)cc1C(=O)Nc1ccc2c(c1)CNC2`, the IC50 is over 99.5 µM.

With `Cc1n[nH]c2nc(Cl)cc(C(=O)Nc3ccc4c(c3)CNC4)c12`, the IC50 is over 99.5 µM.

Compound `O=C(Cc1cccc2[nH]ncc12)Nc1ccc2c(c1)CNC2` displayed an IC50 of over 99.5 µM.

In turn, `C=C1C[C@H](c2cccc(CN)c2)[C@@H](c2cc(Cl)cc(NC(=O)OCc3ccccc3)c2)C1` had a 50% inhibitory concentration (IC50) of over 99.5 µM.

Turning to `O=C(Nc1ccc2c(c1)CNC2)c1cc(Cl)ccc1SC1CCCC1`, the half-inhibitory concentration (IC50) is over 99.5 µM.

Regarding `O=C(Nc1ccc2c(c1)CNC2)c1cc(F)cc2[nH]nnc12`, the concentration for half-maximal inhibition (IC50) was over 99.5 µM.

On to `Clc1ccc2ncn(Cc3ccc4c(c3)CNC4)c2c1`, for which the IC50 was over 99.5 µM.

In turn, `Clc1ccc2c(c1)ncn2Cc1ccc(-c2nn[nH]n2)cc1` came in with a half-inhibitory concentration (IC50) of over 99.5 µM.

Compound `O=C(Nc1ccc2c(c1)CNC2)c1ncc(Br)s1` showed an IC50 of over 99.5 µM.

In turn, `O=C(Nc1ccc2c(c1)CNC2)c1ncnc2ccsc12` returned an IC50 of over 99.5 µM.

`COC(=O)CNC(=O)[C@H](Nc1ccc2c(c1)CNC2)c1cc(Cl)cc(C2CC2)c1` showed an IC50 of over 99.5 µM.

`Cc1c(C(=O)Nc2cc(CCCN)ccn2)cc(-c2ccccc2)n1C` returned an IC50 of over 99.5 µM.

As to `O=C(Nc1ccc2c(c1)CNC2)N1C[C@H](C(F)F)C2(CC2)C1`, the IC50 was over 99.5 µM.

Take `O=C(c1cc(Cl)cc2[nH]ncc12)N1CCC[C@H]1C1CCNCC1`: the IC50 is over 99.5 µM.

Turning to `O=C1CCc2cc(NC(=O)c3cc(Cl)cc4[nH]ncc34)ccc2N1`, the IC50 is over 99.5 µM.

For `Cc1c(C(=O)Nc2cc(CCCN)ccn2)cc(C#N)n1C`, the IC50 is over 99.5 µM.

For `CC(C)NC(=O)[C@H](Nc1ccc2c(c1)C(=O)OC2)c1cc(Cl)cc2[nH]ncc12`, the concentration for half-maximal inhibition (IC50) was over 99.5 µM.

For `FC(F)(F)c1nc(CNCc2cocn2)cs1`, the IC50 is over 99.5 µM.

The compound `O=Cc1ccc(N2CCC(C(=O)N3CCN(c4ccc([N+](=O)[O-])cc4C(F)(F)F)CC3)CC2)cc1` returned an IC50 of over 99.9 µM.

In the case of `COc1nc(Cl)c(CSc2nc(C)co2)s1`, the IC50 is over 99.5 µM.

Regarding `NC(=O)c1ccc(Cn2nnc(C=Cc3ccccc3)n2)cc1`, the IC50 was over 99.5 µM.

In turn, `O=Cc1ccc(N2CCC(C(=O)Nc3cccc(Br)n3)CC2)cc1` showed an IC50 of 14.4 µM.

`Cc1nnnn1Cc1ncc(Br)s1` gave an IC50 of over 99.5 µM.

In the case of `O=Cc1ccc(N2CCC(C(=O)NCCc3ccc(O)c(O)c3)CC2)cc1`, the IC50 came to 35 µM. In other words, the double-digit micromolar range.

For the compound `O=C(O)c1c(Br)sc2nnsc12`, 69.5 µM corresponded to half-maximal inhibition (IC50).

Compound `O=S(=O)(CCOc1ccccc1)c1nccs1` yielded a 50% inhibitory concentration (IC50) of over 99.5 µM.

Regarding `O=c1[nH]c(CSc2ccccc2Cl)nc2ccsc12`, the IC50 was over 99.5 µM.

Take `CN1[C@@H]2CCC[C@H]1C[C@@H](NC(=O)C1CCN(c3ccc(C=O)cc3)CC1)C2`: the IC50 is 98.7 µM.

Turning to `CC(C)NC(=O)[C@H](Nc1ccc2c(c1)CNC2)c1cc(Cl)cc2[nH]c(-c3ccccc3)nc12`, the IC50 was 10.2 µM and 4.1 µM and 35.8 µM.

For `O=C1OCc2ccc(NC(=O)[C@H]3CCNC34CCCC4)cc21`, the IC50 is over 99.5 µM.

As for `O=C(Nc1ccc2c(c1)CNC2)c1cc(Cl)cc2nn[nH]c12`, the IC50 is over 99.5 µM.

As for `NCCCOc1cc(-c2ccc(N)nc2)cc2c1COB2O`, the IC50 is over 99.5 µM.

For the compound `O=Cc1ccc(N2CCC(C(=O)N3CCC(N4CCc5ccccc5C4)CC3)CC2)cc1`, the half-inhibitory concentration (IC50) is over 99.9 µM.

Turning to `COCc1nn(CC#Cc2ccc(Cl)cc2)c(=O)o1`, the IC50 was over 99.5 µM.

For the compound `O=C(Nc1cc(Cl)cc(C(=O)Nc2ccc3c(c2)C[C@H](F)C3)c1)OCc1ccccc1`, the IC50 is over 99.5 µM.

For the compound `O=S(=O)(c1cccs1)N1CCN(CC=Cc2ccccc2)CC1`, the IC50 was over 99.5 µM.

`CS(=O)(=O)Nc1cccc(C(=O)Nc2ccc3c(c2)CNC3)c1` displayed an IC50 of over 99.5 µM.

`O=C(O)c1cc2cc(-c3nccc(C(F)F)n3)ccc2[nH]1` gave an IC50 of over 99.5 µM.

In turn, `NC[C@@H]1CN(c2cc(-c3ccc(N)nc3)cc3c2COB3O)C(=O)O1` showed an IC50 of over 99.5 µM.

Turning to `COCc1cc(Cl)cc(S(=O)(=O)Nc2cccc(-c3nnn[nH]3)c2)c1`, the IC50 was over 99.5 µM.

As to `CSC1(C(=O)N[C@H](CC(=O)Nc2cccc(CN)c2)c2ccc(OCc3ccccc3)c(Br)c2)CCC1`, the IC50 came out at 34.9 µM.

In turn, `O=Cc1ccc(N2CCC(C(=O)NC[C@H](O)c3ccc(O)c(O)c3)CC2)cc1` showed an IC50 of 33.4 µM.

As to `CC(C)[C@@H]1C(=O)O[C@H]1C(=O)O`, the IC50 is over 99.5 µM.

Compound `O=Cc1ccc(N2CCC(C(=O)NCc3cccc(-c4ccccc4)c3)CC2)cc1` displayed an IC50 of 53.3 µM.

The compound `O=C1OCc2ccc(NC(=O)c3cc(F)cc4[nH]ncc34)cc21` displayed an IC50 of over 99.5 µM.

For `O=Cc1ccc(N2CCC(C(=O)N3CCC(CCN4CCCC4)CC3)CC2)cc1`, the IC50 is over 99.9 µM.

`O=Cc1ccc(N2CCC(C(=O)NCCc3ccccc3[N+](=O)[O-])CC2)cc1` gave an IC50 of 93.9 µM.

`CCN1CCN(c2ccc(NC(=O)C3CCN(c4ccc(C=O)cc4)CC3)cc2)CC1` yielded a half-inhibitory concentration (IC50) of 73 µM. The IC50 values of the last two compounds are within 1.5-fold of each other.

In turn, `CS(=O)(=O)c1ccc(N2CCN(C(=O)C3CCN(c4ccc(C=O)cc4)CC3)CC2)c([N+](=O)[O-])c1` had an IC50 of 85.7 µM.

For `CCSc1ccc(Cl)cc1C(=O)Nc1ccc2c(c1)CNC2`, the IC50 was over 99.5 µM.

`Cc1c(CN)c(C(=O)Nc2cc(-c3cccnc3)ccn2)nn1C` had an IC50 of over 99.5 µM.

For the compound `Brc1ccsc1CSc1cnn[nH]1`, the IC50 was over 99.5 µM.

Compound `O=Cc1ccc(N2CCC(C(=O)NCCN3CCc4ccccc43)CC2)cc1` had a 50% inhibitory concentration (IC50) of 20.3 µM.

Compound `Cc1sc2nc(-c3cccs3)[nH]c(=O)c2c1C` had a half-maximal inhibitory concentration (IC50) of over 99.5 µM.

Compound `Clc1snnc1CN1CCC(c2nc3ccccc3o2)CC1` registered an IC50 of over 99.5 µM.

`O=C(Nc1ccc(Cl)cc1C(=O)Nc1cccc(C2CCNCC2)c1)OCc1ccccc1` registered an IC50 of over 99.5 µM.

The compound `NCc1ccc(COc2ccc(-c3ccc(N)nc3)c3c2OB(O)CC3)cc1` registered an IC50 of over 99.5 µM.

In turn, `C[C@H]1c2cc(O)c(O)cc2CCN1C(=O)C1CCN(c2ccc(C=O)cc2)CC1` had an IC50 of 80.5 µM.

`O=c1oc2cccnc2n1CC=Cc1ccccc1` came in with an IC50 of over 99.5 µM.

Compound `O=Cc1ccc(N2CCC(C(=O)NC[C@@H]3CCCN4CCCC[C@H]34)CC2)cc1` returned an IC50 of over 99.9 µM.

On to `CCNC(=O)Nc1cc(Cl)cc(C(=O)Nc2cccc(C3CCNCC3)c2)c1`, for which the IC50 is over 99.5 µM.

For the compound `O=Cc1ccc(N2CCC(C(=O)Nc3ccc(Br)cc3O)CC2)cc1`, half-maximal inhibition (IC50) was put at 33.9 µM.

In the case of `NCCCOc1cc2c(c(-c3ccc(N)nc3)c1)CCB(O)O2`, the IC50 is over 99.5 µM.

The compound `Nc1nc(S(=O)(=O)c2ccccc2)c(Cl)s1` showed a concentration for half-maximal inhibition (IC50) of over 99.5 µM.

Turning to `CC(C)[C@H](N)P(=O)(Oc1ccc(F)cc1)Oc1ccc(F)cc1`, the IC50 is over 99.5 µM.

`O=Cc1ccc(N2CCC(C(=O)NCCC3CCN(Cc4ccccc4)CC3)CC2)cc1` showed an IC50 of 99.7 µM.

In turn, `O=C(NCC1CCCCC1)[C@H]1CCCN1C(=O)Nc1ccc2c(c1)CNC2` had an IC50 of over 99.5 µM.

For the compound `CN(C)CCC(=O)N1CCC([C@@H](NC(=O)OCc2ccccc2)C(=O)Nc2cccc(CN)c2)CC1`, the IC50 is over 99.5 µM.

For the compound `c1cc(C2CCN(Cc3c[nH]c4ccccc34)CC2)c2ccncc2c1`, the IC50 was over 99.5 µM.

In turn, `N#C[C@H](Nc1ccc2c(c1)CNC2)c1cc(Cl)cc2c1OCC2` showed an IC50 of over 99.5 µM.

`c1cc(-c2nnc(NCc3nnn[nH]3)s2)no1`: the IC50 is over 99.5 µM.

Turning to `CC1CCN(CCCCNC(=O)C2CCN(c3ccc(C=O)cc3)CC2)CC1`, the IC50 was over 99.9 µM.

Take `COc1ccc(-n2nnnc2SC(F)F)cc1`: the IC50 is over 99.5 µM.

For `O=C(Nc1ccc2c(c1)CNC2)c1cc(Cl)cc(C(F)(F)F)n1`, half-maximal inhibition (IC50) required 22.5 µM.

`NCc1cccc(NC(=O)[C@@H](NC(=O)OCc2ccccc2)c2cccc(-c3cncnc3)c2)c1` registered an IC50 of over 99.5 µM.

In turn, `Cc1ccc2cccc(NC(=O)C3CCN(c4ccc(C=O)cc4)CC3)c2n1` showed a concentration for half-maximal inhibition (IC50) of 22.4 µM.

Take `O=C(Nc1ccc2c(c1)CNC2)c1cccc2c1OCO2`: the IC50 is over 99.5 µM.

`O=Cc1ccc(N2CCC(C(=O)NCC(=O)c3ccc(O)cc3)CC2)cc1` displayed an IC50 of 52.9 µM.

As for `O=C(Nc1ccc2c(c1)CNC2)c1cccc2nc(C(F)(F)F)[nH]c12`, the IC50 is over 99.5 µM.

With `Cc1nnsc1Cn1ccc(Br)n1`, the IC50 is over 99.5 µM.

`C#C[C@H](Nc1ccc2c(c1)CNC2)c1cccc2c1CCNC2=O`: the IC50 is over 99.5 µM.

`O=S1(=O)CCN(CC#Cc2ccc3sncc3c2)CC1` yielded an IC50 of over 99.5 µM.

`CC(=O)Nc1cccc(CNC(=O)C2CCN(c3ccc(C=O)cc3)CC2)c1` gave an IC50 of 98.1 µM.

As to `O=C(Nc1cc(Cl)cc(C(=O)N[C@]2(c3nnn[nH]3)CCOC2)c1)OCc1ccccc1`, the IC50 is over 99.5 µM.

In turn, `N#Cc1csc(CSc2nnc(C(F)(F)F)s2)n1` gave an IC50 of over 99.5 µM.

In turn, `O=Cc1ccc(N2CCC(C(=O)N3CCN(c4cccc(O)c4)CC3)CC2)cc1` registered an IC50 of 78.2 µM. That is a double-digit micromolar value.

The compound `c1cc(Cc2noc(CCc3cscn3)n2)no1` came in with a half-maximal inhibitory concentration (IC50) of over 99.5 µM.

In turn, `O=C1CC[C@H]2[C@H](CCN2C(=O)c2ccc3c(c2)CNC3)N1` registered an IC50 of over 99.5 µM.

The compound `CCn1c(=O)c(N2CC[C@H](CO)C2)nc2ccc(C(=O)OC)cc21` yielded an IC50 of 82.9 µM.

In turn, `FC(F)(F)c1nnc(COc2cncnc2)s1` yielded an IC50 of over 99.5 µM.

`O=Cc1ccc(N2CCC(C(=O)Nc3ncc(Br)cc3O)CC2)cc1` registered a concentration for half-maximal inhibition (IC50) of 19.1 µM.

On to `NC(=O)C1(N2CCCCC2)CCN(C(=O)C2CCN(c3ccc(C=O)cc3)CC2)CC1`, for which the IC50 is over 24.9 µM.

On to `CCc1cc(C(=O)Nc2cccc(-c3nnn[nH]3)c2)sc1-c1ccc(Cl)cc1`, for which the IC50 was 6.08 µM and 5.66 µM.

`O=Cc1ccc(N2CCC(C(=O)N3CCN(CCc4ccccc4)CC3)CC2)cc1` showed an IC50 of 35.6 µM.

Compound `CC(C)[C@H]1C(=O)O[C@@H]1C(=O)O` showed an IC50 of over 99.5 µM.

For `CSCc1nnc(SCc2ccncc2)o1`, the IC50 is over 99.5 µM.

As to `CC(C)[C@H](NC(=O)[C@@H]1CCCN1C(=O)OCc1ccccc1)P(=O)(Oc1ccc(F)cc1)Oc1ccc(F)cc1`, the IC50 is over 99.5 µM.

Take `O=C(Nc1cc(Cl)cc(C(=O)Nc2ccc3c(c2)CNCC3)c1)OCc1ccccc1`: the IC50 is 57.8 µM.
